Laboratory results from the NIST ThermoML archive (doi:10.1021/je600515j).
Numbers after ± are expanded uncertainties.

Tests used:
[1] = relative permittivity at zero frequency (dimensionless); xn = mol fraction of the nth substance listed; details: 101 kPa, Liquid, dielectric analyzer
[2] = relative permittivity at zero frequency (dimensionless); details: 101.33 kPa, Liquid, dielectric analyzer

Row | Structure (SMILES) | relative permittivity at zero frequency ([1]; 303.15 K, x1 = 0.2) | relative permittivity at zero frequency ([1]; 303.15 K, x1 = 0.4) | relative permittivity at zero frequency ([1]; 303.15 K, x1 = 0.6) | relative permittivity at zero frequency ([1]; 303.15 K, x1 = 0.8) | relative permittivity at zero frequency ([1]; 308.15 K, x1 = 0.2) | relative permittivity at zero frequency ([1]; 308.15 K, x1 = 0.4) | relative permittivity at zero frequency ([1]; 308.15 K, x1 = 0.6) | relative permittivity at zero frequency ([1]; 308.15 K, x1 = 0.8) | relative permittivity at zero frequency ([1]; 313.15 K, x1 = 0.2) | relative permittivity at zero frequency ([1]; 313.15 K, x1 = 0.4) | relative permittivity at zero frequency ([1]; 313.15 K, x1 = 0.6) | relative permittivity at zero frequency ([1]; 313.15 K, x1 = 0.8) | relative permittivity at zero frequency ([1]; 318.15 K, x1 = 0.2) | relative permittivity at zero frequency ([1]; 318.15 K, x1 = 0.4) | relative permittivity at zero frequency ([2]; 303.15 K) | relative permittivity at zero frequency ([2]; 308.15 K) | relative permittivity at zero frequency ([2]; 313.15 K) | relative permittivity at zero frequency ([2]; 318.15 K) | relative permittivity at zero frequency ([2]; 323.15 K) | relative permittivity at zero frequency ([2]; 328.15 K) | also measured
1 | OCCNCCO [diethanolamine] + O | 52.65 ± 1.1 | 39.11 ± 0.78 | 30.57 ± 0.61 | 26.95 ± 0.54 | 51.53 ± 1 | 38.06 ± 0.76 | 29.75 ± 0.6 | 26.41 ± 0.53 | 49.58 ± 0.99 | 36.95 ± 0.74 | 28.91 ± 0.58 | 25.86 ± 0.52 | 48.31 ± 0.97 | 35.81 ± 0.72 | – | – | – | – | – | – | relative permittivity at zero frequency ([1]; 318.15 K, x1 = 0.6): 28.07 ± 0.56; relative permittivity at zero frequency ([1]; 318.15 K, x1 = 0.8): 25.42 ± 0.51; relative permittivity at zero frequency ([1]; 323.15 K, x1 = 0.2): 46.78 ± 0.94; relative permittivity at zero frequency ([1]; 323.15 K, x1 = 0.4): 34.68 ± 0.69; relative permittivity at zero frequency ([1]; 323.15 K, x1 = 0.6): 27.36 ± 0.55; relative permittivity at zero frequency ([1]; 323.15 K, x1 = 0.8): 24.81 ± 0.5; relative permittivity at zero frequency ([1]; 328.15 K, x1 = 0.2): 45.68 ± 0.91; relative permittivity at zero frequency ([1]; 328.15 K, x1 = 0.4): 33.73 ± 0.67; relative permittivity at zero frequency ([1]; 328.15 K, x1 = 0.6): 26.7 ± 0.53; relative permittivity at zero frequency ([1]; 328.15 K, x1 = 0.8): 24.13 ± 0.48
2 | OCCN(CCO)CCO [triethanolamine] + O | 49.25 ± 0.99 | 36.34 ± 0.73 | 31.48 ± 0.63 | 29.67 ± 0.59 | 48.14 ± 0.96 | 35.44 ± 0.71 | 30.66 ± 0.61 | 28.92 ± 0.58 | 47.23 ± 0.94 | 34.53 ± 0.69 | 29.85 ± 0.6 | 28.17 ± 0.56 | 46.33 ± 0.93 | 33.6 ± 0.67 | – | – | – | – | – | – | relative permittivity at zero frequency ([1]; 318.15 K, x1 = 0.6): 29.05 ± 0.58; relative permittivity at zero frequency ([1]; 318.15 K, x1 = 0.8): 27.43 ± 0.55; relative permittivity at zero frequency ([1]; 323.15 K, x1 = 0.2): 45.45 ± 0.91; relative permittivity at zero frequency ([1]; 323.15 K, x1 = 0.4): 32.73 ± 0.65; relative permittivity at zero frequency ([1]; 323.15 K, x1 = 0.6): 28.25 ± 0.57; relative permittivity at zero frequency ([1]; 323.15 K, x1 = 0.8): 26.69 ± 0.53; relative permittivity at zero frequency ([1]; 328.15 K, x1 = 0.2): 44.63 ± 0.89; relative permittivity at zero frequency ([1]; 328.15 K, x1 = 0.4): 31.93 ± 0.64; relative permittivity at zero frequency ([1]; 328.15 K, x1 = 0.6): 27.51 ± 0.55; relative permittivity at zero frequency ([1]; 328.15 K, x1 = 0.8): 26.04 ± 0.52
3 | CC(O)CNCC(C)O (stereo unspecified) [N-(2-hydroxypropyl)-2-hydroxy-1-propanamine] + O | 41.34 ± 0.83 | 24.52 ± 0.49 | 18.46 ± 0.37 | 16.65 ± 0.33 | 40.27 ± 0.81 | 24 ± 0.48 | 18.15 ± 0.36 | 16.45 ± 0.33 | 39.35 ± 0.79 | 23.48 ± 0.47 | 17.84 ± 0.36 | 16.26 ± 0.33 | 38.46 ± 0.77 | 23 ± 0.46 | – | – | – | – | – | – | relative permittivity at zero frequency ([1]; 318.15 K, x1 = 0.6): 17.53 ± 0.35; relative permittivity at zero frequency ([1]; 318.15 K, x1 = 0.8): 16.05 ± 0.32; relative permittivity at zero frequency ([1]; 323.15 K, x1 = 0.2): 37.74 ± 0.75; relative permittivity at zero frequency ([1]; 323.15 K, x1 = 0.4): 22.52 ± 0.45; relative permittivity at zero frequency ([1]; 323.15 K, x1 = 0.6): 17.2 ± 0.34; relative permittivity at zero frequency ([1]; 323.15 K, x1 = 0.8): 15.83 ± 0.32; relative permittivity at zero frequency ([1]; 328.15 K, x1 = 0.2): 37.16 ± 0.74; relative permittivity at zero frequency ([1]; 328.15 K, x1 = 0.4): 22.19 ± 0.44; relative permittivity at zero frequency ([1]; 328.15 K, x1 = 0.6): 16.97 ± 0.34; relative permittivity at zero frequency ([1]; 328.15 K, x1 = 0.8): 15.66 ± 0.31
4 | CN(CCO)CCO [N-methyldiethanolamine] | – | – | – | – | – | – | – | – | – | – | – | – | – | – | 21.84 ± 0.44 | 21.33 ± 0.43 | 20.83 ± 0.42 | 20.32 ± 0.41 | 19.79 ± 0.4 | 19.28 ± 0.39 | –
5 | CC(O)CNCC(C)O (stereo unspecified) [N-(2-hydroxypropyl)-2-hydroxy-1-propanamine] | – | – | – | – | – | – | – | – | – | – | – | – | – | – | 13.87 ± 0.28 | 13.75 ± 0.28 | 13.62 ± 0.27 | 13.49 ± 0.27 | 13.36 ± 0.27 | 13.26 ± 0.27 | –
6 | CC(C)(N)CO [2-amino-2-methylpropan-1-ol] | – | – | – | – | – | – | – | – | – | – | – | – | – | – | 20.59 ± 0.41 | 20.11 ± 0.4 | 19.69 ± 0.39 | 19.27 ± 0.39 | 18.88 ± 0.38 | 18.37 ± 0.37 | –
7 | CC(O)CO (stereo unspecified) [1,2-propanediol] | – | – | – | – | – | – | – | – | – | – | – | – | – | – | 27.87 ± 0.56 | 27.13 ± 0.54 | 26.43 ± 0.53 | 25.76 ± 0.52 | 25.08 ± 0.5 | 24.57 ± 0.49 | –
8 | OCCNCCO [diethanolamine] | – | – | – | – | – | – | – | – | – | – | – | – | – | – | 24.69 ± 0.49 | 24.3 ± 0.49 | 23.86 ± 0.48 | 23.28 ± 0.47 | 22.63 ± 0.45 | 22.13 ± 0.44 | –
9 | CC(C)(N)CO [2-amino-2-methylpropan-1-ol] + O | 48.24 ± 0.96 | 33.65 ± 0.67 | 26.63 ± 0.53 | 23.35 ± 0.47 | 47.33 ± 0.95 | 32.99 ± 0.66 | 26.17 ± 0.52 | 22.82 ± 0.46 | 46.43 ± 0.93 | 32.33 ± 0.65 | 25.65 ± 0.51 | 22.28 ± 0.45 | 45.46 ± 0.91 | 31.8 ± 0.64 | – | – | – | – | – | – | relative permittivity at zero frequency ([1]; 318.15 K, x1 = 0.6): 25.14 ± 0.5; relative permittivity at zero frequency ([1]; 318.15 K, x1 = 0.8): 21.87 ± 0.44; relative permittivity at zero frequency ([1]; 323.15 K, x1 = 0.2): 44.31 ± 0.89; relative permittivity at zero frequency ([1]; 323.15 K, x1 = 0.4): 31.15 ± 0.62; relative permittivity at zero frequency ([1]; 323.15 K, x1 = 0.6): 24.95 ± 0.5; relative permittivity at zero frequency ([1]; 323.15 K, x1 = 0.8): 21.42 ± 0.43; relative permittivity at zero frequency ([1]; 328.15 K, x1 = 0.2): 43.13 ± 0.86; relative permittivity at zero frequency ([1]; 328.15 K, x1 = 0.4): 30.11 ± 0.6; relative permittivity at zero frequency ([1]; 328.15 K, x1 = 0.6): 24.37 ± 0.49; relative permittivity at zero frequency ([1]; 328.15 K, x1 = 0.8): 21.03 ± 0.42
10 | OCCN(CCO)CCO [triethanolamine] | – | – | – | – | – | – | – | – | – | – | – | – | – | – | 28.11 ± 0.56 | 27.41 ± 0.55 | 26.73 ± 0.53 | 26.07 ± 0.52 | 25.41 ± 0.51 | 24.8 ± 0.5 | –
11 | CN(CCO)CCO [N-methyldiethanolamine] + O | 48.77 ± 0.98 | 33.92 ± 0.68 | 26.68 ± 0.53 | 23.44 ± 0.47 | 47.54 ± 0.95 | 33.09 ± 0.66 | 26.03 ± 0.52 | 22.86 ± 0.46 | 46.36 ± 0.93 | 32.16 ± 0.64 | 25.4 ± 0.51 | 22.31 ± 0.45 | 45.14 ± 0.9 | 31.25 ± 0.63 | – | – | – | – | – | – | relative permittivity at zero frequency ([1]; 318.15 K, x1 = 0.6): 24.69 ± 0.49; relative permittivity at zero frequency ([1]; 318.15 K, x1 = 0.8): 21.77 ± 0.44; relative permittivity at zero frequency ([1]; 323.15 K, x1 = 0.2): 43.98 ± 0.88; relative permittivity at zero frequency ([1]; 323.15 K, x1 = 0.4): 30.37 ± 0.61; relative permittivity at zero frequency ([1]; 323.15 K, x1 = 0.6): 23.96 ± 0.48; relative permittivity at zero frequency ([1]; 323.15 K, x1 = 0.8): 21.15 ± 0.42; relative permittivity at zero frequency ([1]; 328.15 K, x1 = 0.2): 42.68 ± 0.85; relative permittivity at zero frequency ([1]; 328.15 K, x1 = 0.4): 29.41 ± 0.59; relative permittivity at zero frequency ([1]; 328.15 K, x1 = 0.6): 23.21 ± 0.46; relative permittivity at zero frequency ([1]; 328.15 K, x1 = 0.8): 20.56 ± 0.41
